Source: patent US20060257934A1 (priority 2005, published 2006)
Like-named read-outs stand apart in the source and are kept apart here.

What was measured:
[1] = biological target: T1, GABAA receptor (rat α1β2 γ2) (Rattus norvegicus, UniProt P18508+P62813+P63138); experiment: cell-based
T1 construct: expressed in transfected cells
Experimental: Doubly transfected cell lines were generated that express GABAA receptor (rat α1β2 γ2) together with a yellow fluorescent protein (YFP) Topaz-based halide sensor (46/148/152 mutant).
Doubly transfected cells were plated onto black-walled, clear-bottomed, poly-D-lysine-coated 384-well plates (Becton Dickinson Biosciences). Prior to the assay, the cell medium was removed and replaced with chloride-free plating medium (CFPM; see the composition below). After the incubation in CFPM for 3-4 hours at 37° C. in a 5% CO2 atmosphere, the medium was removed and replaced with chloride-free assay buffer (CFAB; see the composition below ), containing the final concentrations of test compounds. The cells were incubated for 15-20 minutes in the dark (to preserve fluorescence of the YFP) at room temperature (RT). Once the incubation was complete, the cell plates were transferred to the FLIPR (Molecular Devices Inc., Sunnyvale, Calif.) for the assay.
YFP was excited with 488 nm wavelength light and the fluorescence measured using a 540/60 nm bandpass emission filter. FLIPR settings were routinely adjusted so that the background fluorescence reading at the beginning of the assay was 20,000-50,000 counts/ms. After measuring a baseline readout of 10 seconds, the stimulus buffer was added to the well and signal was recorded for 2-4 more minutes. The stimulus buffer comprised CFAB, except that the sodium gluconate component was replaced with sodium iodide. Note that the addition of the iodide causes quenching of the fluorescent signal. In the majority of the experiments, the final concentration of sodium iodide in the stimulus buffer was about 5 mM.
The fluorescence response was corrected for the background fluorescence, as well as for the fluorescence changes, caused by iodide only. […] The initial analysis and data export was done using FLIPR-384 software (Version 1.25).
Microsoft Excel® was used to plot concentration-response curves and determine an EC50 value. […]

[2] = biological target: α1-containing isoforms of the GABA(A) receptor; settings: read-out: EC50 for diazepam, published electrophysiological recordings; α1-containing isoforms in various expression systems; cited from earlier work
[3] = test system: neuronal-like cell line NT-2 N; settings: read-out: EC50 for diazepam; cited from earlier work
[4] = test system: hippocampal granule cells; settings: read-out: EC50 for diazepam; cited from earlier work

T1 sequence (P62813 28-455): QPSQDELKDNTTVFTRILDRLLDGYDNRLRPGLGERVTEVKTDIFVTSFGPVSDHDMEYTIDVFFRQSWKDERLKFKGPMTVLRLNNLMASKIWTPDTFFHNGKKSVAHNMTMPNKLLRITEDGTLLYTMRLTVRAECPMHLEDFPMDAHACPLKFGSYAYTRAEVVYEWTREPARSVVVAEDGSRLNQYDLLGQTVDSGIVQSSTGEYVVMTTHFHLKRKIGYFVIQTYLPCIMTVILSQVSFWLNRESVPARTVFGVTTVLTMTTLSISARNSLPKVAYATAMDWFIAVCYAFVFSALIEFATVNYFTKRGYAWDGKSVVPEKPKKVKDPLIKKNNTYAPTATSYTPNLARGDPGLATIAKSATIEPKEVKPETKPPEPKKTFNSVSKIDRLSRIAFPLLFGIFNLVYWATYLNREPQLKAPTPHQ
T1 sequence (P63138 25-474 limits assumed): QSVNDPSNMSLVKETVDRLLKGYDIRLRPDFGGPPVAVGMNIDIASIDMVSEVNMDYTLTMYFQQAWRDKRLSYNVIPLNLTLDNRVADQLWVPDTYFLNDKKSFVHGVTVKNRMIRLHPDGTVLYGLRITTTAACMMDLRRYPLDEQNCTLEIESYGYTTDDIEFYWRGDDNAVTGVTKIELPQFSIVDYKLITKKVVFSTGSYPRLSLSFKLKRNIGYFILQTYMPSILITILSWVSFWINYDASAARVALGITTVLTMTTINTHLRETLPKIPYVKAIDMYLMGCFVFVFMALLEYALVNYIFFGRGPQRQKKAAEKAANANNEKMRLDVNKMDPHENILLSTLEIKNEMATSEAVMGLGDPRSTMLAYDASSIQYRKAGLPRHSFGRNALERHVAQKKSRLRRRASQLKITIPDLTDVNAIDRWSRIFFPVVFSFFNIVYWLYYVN
T1 sequence (P18508 39-466): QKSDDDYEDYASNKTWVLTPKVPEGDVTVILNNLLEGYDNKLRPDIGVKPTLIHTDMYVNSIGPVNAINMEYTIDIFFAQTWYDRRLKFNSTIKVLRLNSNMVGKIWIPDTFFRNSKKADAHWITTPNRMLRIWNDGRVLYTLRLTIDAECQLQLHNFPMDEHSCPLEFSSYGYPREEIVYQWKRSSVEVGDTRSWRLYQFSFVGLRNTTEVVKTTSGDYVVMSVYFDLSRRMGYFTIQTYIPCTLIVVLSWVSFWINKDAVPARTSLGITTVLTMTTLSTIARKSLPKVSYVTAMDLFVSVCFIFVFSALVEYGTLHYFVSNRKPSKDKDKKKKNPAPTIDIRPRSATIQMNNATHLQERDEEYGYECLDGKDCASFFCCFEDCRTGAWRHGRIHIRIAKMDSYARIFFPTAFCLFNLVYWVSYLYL

CC(=O)[C@H]1CC[C@H]2[C@@H]3CC[C@H]4C[C@H](O)CC[C@]4(C)[C@H]3CC[C@]12C [allopregnanolone]
Effect on GABA-induced fluorescent signal ([1]; against constant GABA 0.25 μM): concentration-dependent increase

CN1CCc2cc3c(cc2[C@H]1[C@@H]1OC(=O)c2c1ccc1c2OCO1)OCO3 [bicuculline]
IC50 [1]: 4.7 ± 0.9 µM

CN1C(=O)CN=C(c2ccccc2)c2cc(Cl)ccc21 [diazepam]
Effect on GABA-induced fluorescent signal [1]: concentration-dependent increase
EC50 [2]: 0.053 to 0.07 µM
EC50 [3]: 0.074 µM
EC50 [4]: 0.122 µM
